Assay results: ChEMBL document CHEMBL5506055, “Hit-to-Lead Optimization of the Natural Product Oridonin as Novel NLRP3 Inflammasome Inhibitors with Potent Anti-Inflammation Activity” (J Med Chem, 2024)
Activity calls are given as the source filed them. The rule behind the calls is not given here.

How the values were obtained:
[1] = target: NACHT, LRR and PYD domains-containing protein 3 (Mus musculus, UniProt Q8R4B8); assay: Inhibition of NLRP3 inflammasome activation in LPS/ATP-induced C57BL/6 mouse BMDMs assessed as reduction in IL-1beta secretion preincubated with LPS for 4 hrs followed by compound addition for 30 mins and further stimulated with ATP for 30 mins by ELISA; assay type: cell-based, BMDM
[2] = target: NACHT, LRR and PYD domains-containing protein 3 (Mus musculus) (UniProt Q8R4B8); assay: Inhibition of NLRP3 inflammasome activation in LPS/nigericin-induced C57BL/6 mouse BMDMs at 200 nM preincubated with LPS for 4 hrs followed by compound addition for 30 mins and further stimulated with nigericin for 30 mins by ELISA; assay type: cell-based; details: BMDM, time 1.0 hrs
[3] = target: T1, Interferon-inducible protein AIM2 (Mus musculus) (UniProt Q91VJ1); assay: Inhibition of AIM2 inflammasome activation in LPS/flagellin-induced C57BL/6 mouse BMDMs at 200 nM […] for 4 hrs followed by compound addition for 30 mins and further stimulated with flagellin for 4 hrs; assay type: cell-based; details: BMDM, time 4.5 hrs
T1 sequence (whole entry): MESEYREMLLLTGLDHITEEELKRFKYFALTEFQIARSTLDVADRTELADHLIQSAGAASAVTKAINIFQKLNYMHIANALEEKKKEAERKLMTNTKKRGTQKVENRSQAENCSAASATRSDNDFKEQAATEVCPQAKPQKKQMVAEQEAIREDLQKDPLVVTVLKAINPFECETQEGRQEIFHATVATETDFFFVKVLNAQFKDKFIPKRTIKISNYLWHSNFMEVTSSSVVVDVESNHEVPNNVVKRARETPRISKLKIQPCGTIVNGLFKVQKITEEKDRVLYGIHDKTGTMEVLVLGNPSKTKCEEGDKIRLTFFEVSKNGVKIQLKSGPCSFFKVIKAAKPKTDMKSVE

[4] = Half-life in ICR mouse at 10 mg/kg, po measured upto 24 hrs by LC-MS/MS method; assay type: ADME, organism-based; details: in vivo
[5] = Cmax in ICR mouse at 10 mg/kg, po measured upto 24 hrs by LC-MS/MS method; assay type: ADME, organism-based; details: in vivo
[6] = Stability in mouse plasma assessed as half life measured upto 8 hrs; assay type: ADME, cell-free
[7] = test system: BMDM; assay: Inhibition of mitochondrial damage in mouse BMDMs at 200 nM preincubated with LPS for 4 hrs followed by compound addition for 30 mins and further stimulated with ATP for 30 mins by confocal microscopic analysis; assay type: functional, cell-based; details: time 1.0 hrs
[8] = target: NACHT, LRR and PYD domains-containing protein 3 (Mus musculus) (UniProt Q8R4B8); assay: Inhibition of NLRP3 inflammasome activation in LPS/ATP-induced C57BL/6 mouse BMDMs assessed as reduction in TNFalpha production at 50 to 200 nM preincubated with compound prior to LPS addition for 30 mins and further stimulated with ATP for 30 mins by Western blotting analysis; assay type: cell-based; details: BMDM, dose 50-200 nM, time 60.0 min
[9] = target: NACHT, LRR and PYD domains-containing protein 3 (Mus musculus) (UniProt Q8R4B8); assay: Inhibition of NLRP3 inflammasome activation in LPS/ATP-induced C57BL/6 mouse BMDMs assessed as reduction in IL-1beta secretion at 100 nM preincubated with LPS for 4 hrs followed by compound addition for 30 mins and further stimulated with ATP for 30 mins by ELISA relative to control; assay type: cell-based; details: BMDM, time 1.0 hrs
[10] = target: NACHT, LRR and PYD domains-containing protein 3 (Mus musculus) (UniProt Q8R4B8); assay: (§1) Inhibition of NLRP3 inflammasome activation in LPS/ATP-induced C57BL/6 mouse BMDMs assessed as inhibition of ASC oligomerization by measuring reduction in ASC expression at 50 to 200 nM preincubated with LPS for 4 hrs followed by compound addition for 30 mins and further stimulated with ATP for 30 mins by Western blotting analysis; assay type: cell-based; details: BMDM, dose 50-200 nM, time 1.0 hrs
[11] = target: NACHT, LRR and PYD domains-containing protein 3 (Mus musculus) (UniProt Q8R4B8); assay: Binding affinity to NLRP3 in mouse BMDMs at 10^-2 to 10^3 uM incubated for 10 to 90 mins by ITDRF; assay type: cell-based; details: BMDM, dose 0.01-1000 µM, time 10-90 min
[12] = target: NACHT, LRR and PYD domains-containing protein 3 (Mus musculus) (UniProt Q8R4B8); assay: as §1, with “cleaved caspase-1 secretion” for “ASC expression”; assay type: cell-based; details: BMDM, dose 50-200 nM, time 1.0 hrs
[13] = test system: Mus musculus; assay: Antiinflammatory activity in C57BL/6 mouse model of arthritis assessed as reduction in MSU-induced pro-caspase 1 expression in joints at 12.5 to 25 mg/kg, iv measured upto 24 hrs; assay type: functional, organism-based; details: dose 12.5-25 mg/kg
[14] = target: NACHT, LRR and PYD domains-containing protein 3 (Mus musculus) (UniProt Q8R4B8); assay: Inhibition of NLRP3 inflammasome activation in LPS-induced C57BL/6 mouse BMDMs assessed as reduction in NLRP3 mRNA level at 50 to 200 nM preincubated for 24 hrs followed by LPS addition for 4 hrs by qRT-PCR analysis; assay type: cell-based; details: BMDM, dose 50-200 nM, time 28.0 hrs
[15] = test system: Mus musculus; assay: Antiinflammatory activity in MSU-induced C57BL/6 mouse model of arthritis assessed as reduction in inflammatory cell infiltration at 12.5 to 25 mg/kg, iv measured after 24 hrs; assay type: functional, organism-based; details: dose 12.5-25 mg/kg
[16] = target: NACHT, LRR and PYD domains-containing protein 3 (Mus musculus) (UniProt Q8R4B8); assay: Inhibition of NLRP3 inflammasome activation in LPS/ATP-induced C57BL/6 mouse BMDMs assessed as reduction in IL-1beta secretion at 500 nM preincubated with LPS for 4 hrs followed by compound addition for 30 mins and further stimulated with ATP for 30 mins by ELISA relative to control; assay type: cell-based; details: BMDM, time 1.0 hrs
[17] = AUC in ICR mouse at 10 mg/kg, po measured upto 24 hrs by LC-MS/MS method; assay type: ADME, organism-based; details: in vivo, po, 10 mg/kg, 24 h
[18] = target: NACHT, LRR and PYD domains-containing protein 3 (Mus musculus) (UniProt Q8R4B8); assay: Inhibition of NLRP3 inflammasome activation in LPS/ATP-induced C57BL/6 mouse BMDMs assessed as reduction in NLRP3 expression preincubated with compound prior to LPS addition for 30 mins and further stimulated with ATP for 30 mins by Western blotting analysis; assay type: cell-based; details: BMDM, dose 50-200 nM, time 60.0 min
[19] = target: NACHT, LRR and PYD domains-containing protein 3 (Mus musculus) (UniProt Q8R4B8); assay: Inhibition of NLRP3 inflammasome activation in LPS-induced C57BL/6 mouse BMDMs assessed as effect on phosphorylated p65 expression at 50 to 200 nM preincubated for 24 hrs followed by LPS addition for 4 hrs by Western blotting analysis; assay type: cell-based; details: BMDM, dose 50-200 nM, time 28.0 hrs
[20] = Clearance in ICR mouse at 1 mg/kg, iv measured upto 24 hrs by LC-MS/MS method; assay type: ADME, organism-based; details: in vivo
[21] = test system: Mus musculus; assay: Antiinflammatory activity in C57BL/6 mouse model of arthritis assessed as reduction in MSU-induced joint swelling at 12.5 to 25 mg/kg, iv measured upto 24 hrs; assay type: functional, organism-based; details: dose 12.5-25 mg/kg
[22] = target: NACHT, LRR and PYD domains-containing protein 3 (Mus musculus) (UniProt Q8R4B8); assay: Inhibition of NLRP3 inflammasome activation in LPS/ATP-induced C57BL/6 mouse BMDMs assessed as reduction in pro-IL-1beta production at 50 to 200 nM preincubated with compound prior to LPS addition for 30 mins and further stimulated with ATP for 30 mins by Western blotting analysis; assay type: cell-based; details: BMDM, dose 50-200 nM, time 60.0 min
[23] = Oral bioavailability in ICR mouse at 10 mg/kg measured upto 24 hrs by LC-MS/MS method; assay type: ADME, organism-based; details: in vivo, po, 10 mg/kg, 24 h
[24] = test system: Mus musculus; assay: Antiinflammatory activity in C57BL/6 mouse model of arthritis assessed as reduction in MSU-induced NLRP3 expression in joints at 12.5 to 25 mg/kg, iv measured upto 24 hrs; assay type: functional, organism-based; details: dose 12.5-25 mg/kg
[25] = Stability in rat plasma assessed as half life measured upto 8 hrs; assay type: ADME, cell-free
[26] = target: NACHT, LRR and PYD domains-containing protein 3 (Mus musculus) (UniProt Q8R4B8); assay: as §1, with “in pro-caspase-1” for “in ASC”; assay type: cell-based; details: BMDM, dose 50-200 nM, time 1.0 hrs

Sequence of NACHT, LRR and PYD domains-containing protein 3 (Mus musculus) (Q8R4B8 whole entry, the tested form may be a part): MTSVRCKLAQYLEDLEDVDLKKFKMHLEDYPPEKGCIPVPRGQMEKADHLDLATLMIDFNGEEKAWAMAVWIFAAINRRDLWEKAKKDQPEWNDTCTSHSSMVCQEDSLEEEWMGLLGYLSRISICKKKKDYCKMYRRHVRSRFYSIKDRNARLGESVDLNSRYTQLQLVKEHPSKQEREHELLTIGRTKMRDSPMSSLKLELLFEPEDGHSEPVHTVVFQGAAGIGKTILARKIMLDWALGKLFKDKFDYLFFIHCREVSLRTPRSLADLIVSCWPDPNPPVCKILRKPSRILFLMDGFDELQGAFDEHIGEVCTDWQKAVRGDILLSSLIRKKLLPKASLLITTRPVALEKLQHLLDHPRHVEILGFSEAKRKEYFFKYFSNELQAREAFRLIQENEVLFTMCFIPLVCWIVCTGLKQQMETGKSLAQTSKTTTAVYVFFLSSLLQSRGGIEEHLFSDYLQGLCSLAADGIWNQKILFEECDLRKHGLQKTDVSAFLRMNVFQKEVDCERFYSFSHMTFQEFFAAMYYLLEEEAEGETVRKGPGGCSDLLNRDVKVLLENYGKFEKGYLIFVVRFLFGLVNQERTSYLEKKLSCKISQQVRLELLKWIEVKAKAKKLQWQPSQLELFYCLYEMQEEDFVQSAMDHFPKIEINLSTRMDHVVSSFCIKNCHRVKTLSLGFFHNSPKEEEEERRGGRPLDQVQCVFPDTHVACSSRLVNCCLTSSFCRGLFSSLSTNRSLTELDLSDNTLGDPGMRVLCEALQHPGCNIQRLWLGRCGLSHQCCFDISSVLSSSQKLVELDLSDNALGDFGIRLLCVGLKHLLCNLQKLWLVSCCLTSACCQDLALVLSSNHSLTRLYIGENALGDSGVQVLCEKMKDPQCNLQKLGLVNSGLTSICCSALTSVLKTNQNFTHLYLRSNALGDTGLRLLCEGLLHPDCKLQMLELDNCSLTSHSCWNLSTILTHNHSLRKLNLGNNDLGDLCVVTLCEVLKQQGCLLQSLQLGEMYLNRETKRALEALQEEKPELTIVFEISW
Sequence of NACHT, LRR and PYD domains-containing protein 3 (Q8R4B8 whole entry, the tested form may be a part): as above

- IC50 [1]: 77.2 nM
- inhibition [2]: Active
- inhibition [3]: Active
- half-life [4]: 1.6 h
- Cmax [5]: 279 ng/mL
- half-life [6]: 15.2 h
- inhibition [8]: inactive
- inhibition [9]: 64.3%
- inhibition [10]: inactive
- Activity [11]: Active
- inhibition [12]: Active
- inhibition [14]: inactive
- inhibition [16]: 95.3%
- AUC [17]: 525.5 ng·h/mL
- inhibition [18]: inactive
- inhibition [19]: inactive
- clearance [20]: 69.1 mL/min/kg
- inhibition [22]: Active
- F [23]: 9%
- half-life [25]: 6.21 h
- inhibition [26]: inactive
SMILES: C=C1C(=O)[C@]23[C@H](O)[C@H]1CC[C@H]2[C@]12C=CCC(C)(C)[C@H]1[C@H](O)[C@@]3(OCCC(=O)O)OC2
- inhibition [7]: inactive
- Activity [13]: inactive
- Activity [15]: Active
- Activity [21]: Active
- Activity [24]: inactive
